Patent US20070264200A1, “Mouse MRI for drug screening” (priority 2005, published 2007)
Where “and” joins values, the source holds several entries; their conditions need not be identical. Identical values can stand only once. Like-named read-outs stand apart in the source and are kept apart here.

How the values were obtained:
[1] = rats, IV; cited from earlier work
[2] = humans; cited from earlier work
[3] = mice, IV; cited from earlier work
[4] = Physiological monitoring (SaO2, heart rate, respiratory rate, ECG) during MRI, pre versus post contrast agent; type: in vivo; details: for changes in SaO2, HR, RR or ECG parameters (ST, T wave morphology, rhythm), pre versus post contrast agent: up to 2 hours after contrast agent
Description: Wild type C57BL/6 mice 6-10 months of age (25-30 gr) were used in all experiments. Since variations in physiological processes can influence the MRI signal in the brain, various monitoring devices were used while the mouse was being imaged. Heart rate, respiratory rate and SaO2 were continuously monitored using pulse oximetry (Model V33304, Sergivet). The probe was attached to the lower abdomen. A rectal temperature was continuously monitored with a thermestor (YSI Precision Thermometer 4000A).
ECG was monitored in a physiogard (SM 785, Brucker) by using subcutaneous silver electrodes from the front limbs and the reference electrode placed at the right posterior limb.
Comparisons were made within the groups pre with post contrast agent up to 2 hours after IV (feridex or gadodiamide) or IP GD (10 mmol/kg) (Table 1).
Thus, 10 mmol/kg was identified as the optimum dose of GD, and this dose was used for all further experiment unless otherwise indicated. […] Since the goal is to keep scan time as short as possible, in order to minimize morbidity and mortality, a 45 minutes time point was identified as the optimum post-contrast time interval.

[5] = IP 15 mmol/kg, individual mice with toxicity, listed as GD

For `CNC(=O)CN(CCN(CCN(CC(=O)[O-])CC(=O)NC)CC(=O)[O-])CC(=O)[O-].[Gd+3]` [gadodiamide], the elimination half-life [1] is given as “about 20 minutes”, the elimination half-life [2] is given as “approximately 1.5 hours” and the elimination half-life [3] is given as 5 to 6 min. For the same molecule, the “changes in SaO2, HR, RR or ECG parameters (ST, T wave morphology, rhythm), pre versus post contrast agent” value ([4]; IP 10 mmol/kg) was “No significant changes”, the “RR (respiratory rate)” value [4, 5] was 100 and 110 and the SaO2 [4, 5] was 72 and 65. For the same molecule, the “toxicity (significant changes in vital signs)” value ([4]; IP 15 mmol/kg, two mice, procedure aborted) was “caused toxicity” and the “changes in SaO2, HR, RR or ECG parameters (ST, T wave morphology, rhythm), pre versus post contrast agent” value ([4]; IV) was “No significant changes”.
